Experimental findings from US7294635B2 (Portola Pharmaceuticals, Inc., priority 2003, dated 2007) are described below.

The structures appear in SMILES notation. Where two headings read alike, the source gives them in different places.

In the experiment the test system is ADP-induced human platelet aggregation. Put plainly: Inhibition of ADP-mediated platelet aggregation in vitro using platelet-rich plasma (PRP assay). Format: cell-based. As to conditions: 5 min, read-out: Activity in the PRP assay. As for the experimental part:
This Example Provides an Assay for the Inhibition of ADP-Mediated Platelet Aggregation In Vitro Using Platelet-Rich Plasma (PRP)
Platelet-rich plasma (PRP) is prepared by centrifugation at 160×g for 20 minutes at room temperature. PRP is collected, and the platelet concentration is determined using a Coulter counter or hemocytometer (platelet concentration should be 2-4×10^8 platelets per mL).
Inhibition of ADP-dependent aggregation is preferably determined in 96-well flat-bottom microtiter plates using a microtiter plate shaker and plate reader similar to the procedure described by Frantantoni et al., Am. J. Clin. Pathol. […] All steps are performed at room temperature. The total reaction volume of 0.2 mL/well includes: PRP (˜6×10^7 total platelets in the presence of plasma), serial dilutions of test compounds (buffer for control wells) in 0.6% DMSO. After about 5 minutes preincubation at room temperature, ADP is added to a final concentration of 2 μM which induces submaximal aggregation. Buffer is added instead of ADP to one set of control wells (ADP-control). The OD of the samples is then determined at 650 nm using a microtiter plate reader (Softmax, Molecular Devices, Menlo Park, Calif.) resulting in the 0 minute reading. The plates are then agitated for 5 min on a microtiter plate shaker and the 5 minute reading is obtained in the plate reader. Aggregation is calculated from the decrease of OD at 650 nm at t=5 minutes compared to t=0 minutes and is expressed as % of the decrease in the ADP control samples after correcting for changes in the unaggregated control samples.

[1] abbreviates: human platelet-rich plasma, 2 μM ADP, 96-well microtiter, OD 650 nm at 5 min.

On to `CNc1cc2ccn(-c3cc(C)c(NC(=O)NS(=O)(=O)c4ccc(Cl)s4)c(C(C)C)c3)c(=O)c2cc1F` [Example 100, 5-chloro-N-[({4-[7-fluoro-6-(methylamino)-1-oxoisoquinolin-2(1H)-yl]-2-isopropyl-6-methylphenyl}amino)carbonyl]thiophene-2-sulfonamide], for which the IC50 under setting [1] was in the range of 10 to 30 µM.

On to `CNc1cc2ccn(-c3ccc(NC(=O)NS(=O)(=O)c4ccc(Cl)s4)cc3C(F)(F)F)c(=O)c2cc1F` [Example 95, 5-chloro-N-({[4-[7-fluoro-6-(methylamino)-1-oxoisoquinolin-2(1H)-yl]-3-(trifluoromethyl)phenyl]amino}carbonyl)thiophene-2-sulfonamide], for which the IC50 under setting [1] is greater than 30 µM.

Turning to `CNc1cc2ccn(-c3ccc(NC(=O)NS(=O)(=O)c4ccc(Cl)s4)cc3C(C)O)c(=O)c2cc1F` (centres unmarked) [Example 74, 5-chloro-N-({[4-[7-fluoro-6-(methylamino)-1-oxoisoquinolin-2(1H)-yl]-3-(1-hydroxyethyl)phenyl]amino}carbonyl)thiophene-2-sulfonamide], the IC50 under setting [1] was greater than 30 µM.

With `CCOc1cc(-n2ccc3cc(NC)c(F)cc3c2=O)ccc1NC(=O)NS(=O)(=O)c1ccc(Cl)s1` [Example 90, 5-chloro-N-[({2-ethoxy-4-[7-fluoro-6-(methylamino)-1-oxoisoquinolin-2(1H)-yl]phenyl}amino)carbonyl]thiophene-2-sulfonamide], under setting [1], the IC50 was less than 10 µM.

For `C#Cc1ccc(S(=O)(=O)NC(=O)Nc2ccc(-n3ccc4cc(NC)c(F)cc4c3=O)cc2)s1` [Example 35], the IC50 under setting [1] is less than 10 µM.

For `CNc1cc2ccn(-c3ccc(NC(=O)NS(=O)(=O)c4ccc(Cl)s4)cc3F)c(=O)c2cc1F` [Example 49, 5-chloro-N-[({3-fluoro-4-[7-fluoro-6-(methylamino)-1-oxoisoquinolin-2(1H)-yl]phenyl}amino)carbonyl]thiophene-2-sulfonamide], the IC50 under setting [1] is less than 10 µM.

Turning to `CNc1cc2ccn(-c3ncc(NC(=O)NS(=O)(=O)c4ccc(Cl)s4)cc3C)c(=O)c2cc1F` [Example 57, 5-chloro-N-[({6-[7-fluoro-6-(methylamino)-1-oxoisoquinolin-2(1H)-yl]-5-methylpyridin-3-yl}amino)carbonyl]thiophene-2-sulfonamide], the IC50 under setting [1] is greater than 30 µM.

As to `CNc1cc2ccn(-c3ccc(NC(=O)NS(=O)(=O)c4ccc(Cl)s4)cc3C(C)=O)c(=O)c2cc1F` [Example 70, N-[({3-acetyl-4-[7-fluoro-6-(methylamino)-1-oxoisoquinolin-2(1H)-yl]phenyl}amino)carbonyl]-5-chlorothiophene-2-sulfonamide], the IC50 under setting [1] is 10 to 30 µM.

As for `O=CNc1cc2ccn(-c3ccc(NC(=O)NS(=O)(=O)c4ccc(Cl)s4)cc3)c(=O)c2cc1F` [Example 14, 5-chloro-N-[({4-[7-fluoro-6-(formylamino)-1-oxoisoquinolin-2(1H)-yl]phenyl}amino)carbonyl]thiophene-2-sulfonamide], the IC50 under setting [1] was greater than 30 µM.

For the compound `CNc1cc2ccn(-c3ccc(NC(=O)NS(=O)(=O)c4ccc(Cl)s4)cc3C(N)=O)c(=O)c2cc1F` [Example 68, 5-[({[(5-chlorothien-2-yl)sulfonyl]amino}carbonyl)amino]-2-[7-fluoro-6-(methylamino)-1-oxoisoquinolin-2(1H)-yl]benzamide], under setting [1], the IC50 lay in the range of 10 to 30 µM.

Turning to `CNc1cc2ccn(-c3ccc(NC(=O)NS(=O)(=O)c4ccc(Cl)s4)c(OC)c3)c(=O)c2cc1F` [Example 75, 5-chloro-N-[({4-[7-fluoro-6-(methylamino)-1-oxoisoquinolin-2(1H)-yl]-2-methoxyphenyl}amino)carbonyl]thiophene-2-sulfonamide], the IC50 under setting [1] is less than 10 µM.

As for `CNc1cc2ccn(-c3ccc(NC(=O)NS(=O)(=O)c4ccc(Cl)s4)c(O)c3)c(=O)c2cc1F` [Example 77, 5-chloro-N-[({4-[7-fluoro-6-(methylamino)-1-oxoisoquinolin-2(1H)-yl]-2-hydroxyphenyl}amino)carbonyl]thiophene-2-sulfonamide], the IC50 under setting [1] was less than 10 µM.

With `CNc1cc2ccn(-c3ccc(NC(=O)NS(=O)(=O)c4ccc(Cl)s4)c(OCCOC(C)=O)c3)c(=O)c2cc1F` [Example 82, 2-{2-[({[(5-chlorothien-2-yl)sulfonyl]amino}carbonyl)amino]-5-[7-fluoro-6-(methylamino)-1-oxoisoquinolin-2(1H)-yl]phenoxy}ethyl acetate], the IC50 under setting [1] was 10 to 30 µM.

On to `O=C(Nc1ccc(-n2ccc3cc(NCCF)c(F)cc3c2=O)cc1)NS(=O)(=O)c1ccc(Cl)s1` [Example 20, 5-chloro-N-[({4-[7-fluoro-6-[(2-fluoroethyl)amino]-1-oxoisoquinolin-2(1H)-yl]phenyl}amino)carbonyl]thiophene-2-sulfonamide], for which, under setting [1], the IC50 was less than 10 µM.

In the case of `CNc1cc2ccn(-c3ccc(NC(=O)NS(=O)(=O)c4ccc(Cl)s4)cc3)c(=O)c2cc1F` [Example 10, 5-chloro-N-[({4-[7-fluoro-6-(methylamino)-1-oxoisoquinolin-2(1H)-yl]phenyl}amino)carbonyl]thiophene-2-sulfonamide], the IC50 under setting [1] is less than 10 µM.

As to `CNc1cc2ccn(-c3ccc(NC(=O)NS(=O)(=O)c4ccc(Cl)s4)c(OCc4ccccc4)c3)c(=O)c2cc1F` [Example 79, N-[({2-(benzyloxy)-4-[7-fluoro-6-(methylamino)-1-oxoisoquinolin-2(1H)-yl]phenyl}amino)carbonyl]-5-chlorothiophene-2-sulfonamide], under setting [1], the IC50 was greater than 30 µM.

As to `CCc1ccc(S(=O)(=O)NC(=O)Nc2ccc(-n3ccc4cc(NC)c(F)cc4c3=O)cc2)s1` [Example 30], the IC50 under setting [1] was less than 10 µM.

Turning to `CCNc1cc2ccn(-c3ccc(NC(=O)NS(=O)(=O)c4ccc(Cl)s4)cc3)c(=O)c2cc1F` [Example 19, 5-chloro-N-[({4-[6-(ethylamino)-7-fluoro-1-oxoisoquinolin-2(1H)-yl]phenyl}amino)carbonyl]thiophene-2-sulfonamide], the IC50 (Homo sapiens, Platelet) was less than 10 µM.

`CNc1cc2ccn(-c3ccc(NC(=O)NS(=O)(=O)c4ccc(Cl)s4)c(C(C)C)c3)c(=O)c2cc1F` [Example 92, 5-chloro-N-[({4-[7-fluoro-6-(methylamino)-1-oxoisoquinolin-2(1H)-yl]-2-isopropylphenyl}amino)carbonyl]thiophene-2-sulfonamide]: the IC50 under setting [1] is 10 to 30 µM.

As to `CNc1cc2ccn(-c3ccc(NC(=O)NS(=O)(=O)c4ccc(C#N)s4)cc3)c(=O)c2cc1F` [Example 33], the IC50 under setting [1] is 10 to 30 µM.

In the case of `CNc1cc2ccn(-c3cc(C)c(NC(=O)NS(=O)(=O)c4ccc(Cl)s4)cn3)c(=O)c2cc1F` [Example 56, 5-chloro-N-[({6-[7-fluoro-6-(methylamino)-1-oxoisoquinolin-2(1H)-yl]-4-methylpyridin-3-yl}amino)carbonyl]thiophene-2-sulfonamide], under setting [1], the IC50 is less than 10 µM.

In the case of `CNc1cc2ccn(-c3ccc(NC(=O)NS(=O)(=O)c4ccc(Cl)s4)c(S(C)(=O)=O)c3)c(=O)c2cc1F` [Example 102, 5-chloro-N-({[4-[7-fluoro-6-(methylamino)-1-oxoisoquinolin-2(1H)-yl]-2-(methylsulfonyl)phenyl]amino}carbonyl)thiophene-2-sulfonamide], the IC50 under setting [1] is greater than 30 µM.

Regarding `CNc1cc2ccn(-c3ccc(NC(=O)NS(=O)(=O)c4ccc(Cl)s4)c(OCC(F)(F)F)c3)c(=O)c2cc1F` [Example 89, 5-chloro-N-({[4-[7-fluoro-6-(methylamino)-1-oxoisoquinolin-2(1H)-yl]-2-(2,2,2-trifluoroethoxy)phenyl]amino}carbonyl)thiophene-2-sulfonamide], under setting [1], the IC50 is less than 10 µM.
